Reference: publication PMC8922281, “Synthesis and In Vitro Biological Evaluation of Quinolinyl Pyrimidines Targeting Type II NADH-Dehydrogenase (NDH-2)” (ACS Infectious Diseases, 2022)
Values after ≈ are worked out from the molar mass of the structure shown. Values joined by “and” are separate entries in the source; they are usually repeats but may differ in a detail not shown here. Equal values may be shown once. Read-outs that look alike come from different tables or passages of the source.

Columns and labels:
[1] = test system: S. aureus (ATCC 29213, wild-type); assay: MIC on ESKAPE pathogens, S. aureus; format: cell-based; settings: Staphylococcus aureus, ATCC29213
[2] = test system: K. pneumonia (ATCC 13833, wild-type); assay: MIC on ESKAPE pathogens, K. pneumoniae
[3] = target: MtNDH-2 (Mycobacterium tuberculosis, UniProt P95160); assay: biochemical; design: species or system M. tuberculosis; settings: MtNDH-2 IC50
[4] = test system: A. baumannii (ATCC 19606, wild-type); assay: MIC on ESKAPE pathogens, A. baumannii; format: cell-based; settings: Acinetobacter baumannii
[5] = test system: M. tuberculosis strain H37Rv (ATCC 25618); assay: MIC on M. tuberculosis by resazurin reduction microplate assay (REMA); format: cell-based; settings: Mycobacterium tuberculosis, M. tuberculosis H37Rv, read-out: MIC Mtb
[6] = test system: P. aeruginosa (PAO750 efflux-defective mutant, isogenic to PAO1); assay: microbe, parasite or virus in culture; format: cell-based; settings: Pseudomonas aeruginosa, PAO1, read-out: MIC Pa efflux
[7] = test system: E. coli (ATCC 25922, wild-type); assay: MIC on ESKAPE pathogens, E. coli wild-type; format: cell-based; settings: Escherichia coli
[8] = test system: E. coli (ΔtolC efflux-defective mutant, isogenic to ATCC 25922); assay: microbe, parasite or virus in culture; format: cell-based; settings: Escherichia coli, ATCC25922, read-out: MIC Ec ΔtolC
[9] = test system: E. coli (D22, lpxC mutant, drug-hypersensitive); assay: microbe, parasite or virus in culture; format: cell-based; settings: Escherichia coli, read-out: MIC Ec D22
[10] = test system: P. aeruginosa (PAO1, wild-type); assay: MIC on ESKAPE pathogens, P. aeruginosa wild-type; format: cell-based; settings: Pseudomonas aeruginosa, PAO1, P. aeruginosa PAO1, wild-type; read-out: MIC Pa WT
[11] = Cytotoxicity on the MRC-5 cell line (resazurin); format: cell-based; settings: human, MRC-5SV2 cells, MRC-5SV2, 3 days
Method: MRC-5SV2 cells were cultured in Earl’s MEM + 5% FCSi. Assays were performed in 96-well microtiter plates, each well containing about 10^4 cells/well. After 3 days of incubation with or without compounds, cell viability was assessed fluorimetrically after the addition of resazurin (λex 550 nm, λem 590 nm). The results were expressed as % reduction in cell growth/viability compared to untreated control wells and CC50 was determined. Testing/retesting strategy was as described above for HepG2 cells.

[12] = test system: E. coli MG1655 ΔtolC resistant mutants; assay: microbe, parasite or virus in culture; format: cell-based; settings: for MIC: Escherichia coli
[13] = target: MsNDH-2 (Mycolicibacterium smegmatis, UniProt A0QYD6); assay: Inhibition of MsNDH-2 (NADH oxidation with menadione, absorbance at 340 nm); format: biochemical, M. smegmatis
[14] = ATCC19606, A. baumannii ATCC 19606, wild-type, read-out: MIC Ab WT
[15] = ATCC25922, E. coli ATCC 25922, wild-type, read-out: MIC Ec WT
[16] = 95% confidence interval in parentheses, 50 nM enzyme, 50 μM menadione, >100: no significant inhibition at 100 μM
[17] = same IC50 given in μg/mL to assist comparisons with MICs

Chain of MtNDH-2 (P95160 2-463, added parts left off): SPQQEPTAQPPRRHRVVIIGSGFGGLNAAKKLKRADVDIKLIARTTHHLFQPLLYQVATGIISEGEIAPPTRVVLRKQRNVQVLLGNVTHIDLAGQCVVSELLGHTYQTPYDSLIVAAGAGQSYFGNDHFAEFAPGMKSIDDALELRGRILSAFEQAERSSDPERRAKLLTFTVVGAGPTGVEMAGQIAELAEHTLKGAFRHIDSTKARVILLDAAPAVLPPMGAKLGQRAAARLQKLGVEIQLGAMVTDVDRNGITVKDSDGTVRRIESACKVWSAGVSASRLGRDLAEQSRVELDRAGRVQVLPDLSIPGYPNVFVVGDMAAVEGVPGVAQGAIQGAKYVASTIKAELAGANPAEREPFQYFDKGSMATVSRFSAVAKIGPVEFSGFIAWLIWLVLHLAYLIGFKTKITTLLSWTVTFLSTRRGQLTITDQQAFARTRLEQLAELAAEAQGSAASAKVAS
Chain of MsNDH-2 (A0QYD6 1-457): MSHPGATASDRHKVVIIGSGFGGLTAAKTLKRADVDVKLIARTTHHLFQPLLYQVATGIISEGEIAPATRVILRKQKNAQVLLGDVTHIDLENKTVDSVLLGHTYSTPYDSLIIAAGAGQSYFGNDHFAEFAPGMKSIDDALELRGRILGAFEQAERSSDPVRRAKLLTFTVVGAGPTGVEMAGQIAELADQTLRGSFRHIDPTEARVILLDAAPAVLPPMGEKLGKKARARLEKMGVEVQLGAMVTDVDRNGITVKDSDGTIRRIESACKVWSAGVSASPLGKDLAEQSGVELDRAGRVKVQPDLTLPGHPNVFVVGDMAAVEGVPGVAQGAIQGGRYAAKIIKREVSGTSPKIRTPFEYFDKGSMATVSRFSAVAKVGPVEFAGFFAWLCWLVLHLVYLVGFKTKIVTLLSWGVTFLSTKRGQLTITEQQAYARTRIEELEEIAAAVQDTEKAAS

Row | SMILES | MIC [1] [µg/mL] | MIC Kp WT [2] [µg/mL] | IC50 [3] | MIC [4, 14] [µg/mL] | MIC [5] [µg/mL] | MIC [6] [µg/mL] | MIC [7, 15] [µg/mL] | MIC [8] [µg/mL] | MIC [9] [µg/mL] | MIC [10] [µg/mL] | IC50 [13, 16] [µM] | IC50 [13, 17] [µM] | other results
1 | Nc1ccc2nc(-c3ccc(F)cc3)cc(N)c2c1 [Compound 6, 2-(4-Fluorophenyl)quinoline-4,6-diamine] | 64 (≈ 253 µM) | >64 | 1.2 µM and 1.18 µM | > 64 | 12.5 (≈ 49.4 µM) | 64 (≈ 253 µM) | > 64 | > 64 | 64 (≈ 253 µM) | > 64 | – | – | –
2 | Nc1nc(Nc2ccc3nc(-c4ccc(F)cc4)cc(N)c3c2)cc(N2CCNCC2)n1 [Compound 8a, N^6-(2-Amino-6-(piperazin-1-yl)pyrimidin-4-yl)-2-(4-fluorophenyl)quinoline-4,6-diamine] | 32 (≈ 74.3 µM) | >64 | 3.1 µM and 3.02 µM | > 64 | > 43 | 4 (≈ 9.29 µM) | 8 (≈ 18.6 µM) | – | 4 (≈ 9.29 µM) | 8 (≈ 18.6 µM) | 9.7 | 9.76 | IC50 at 3 days ([11]; resazurin): 24 µM; IC50 at 3 days ([11]; value in parentheses): 10 µg/mL; MIC ([12]; MG1655, read-out: MIC mutant, mutant CH4954 raised against 8a, basS (pmrB) Glu121Lys waaY (rfaY) Asp160fs): 8 µg/mL (≈ 18.6 µM); MIC ([12]; MG1655, read-out: MIC mutant, mutant CH4955 raised against 8a, basR (pmrA) Gly53Glu): 16 µg/mL (≈ 37.2 µM); MIC ([12]; MG1655, read-out: MIC mutant, mutant CH4956 raised against 8a, basS (pmrB) Leu10Arg): 8 µg/mL (≈ 18.6 µM); MIC ([12]; MG1655, read-out: MIC mutant, mutant CH4957 raised against 8a, asmA Asn295fs waaP (rfaP) Glu258 stop codon): 16 µg/mL (≈ 37.2 µM); MIC ([12]; MG1655, read-out: MIC mutant, mutant CH5084 raised against 8a, basS (pmrB) Ala159Pro preB Ala13fs): 16 µg/mL (≈ 37.2 µM); fold increase of MIC ([12]; mutant CH4954 vs parent E. coli MG1655 ΔtolC): 2; fold increase of MIC ([12]; mutant CH4955 vs parent E. coli MG1655 ΔtolC): 4; fold increase of MIC ([12]; mutant CH4956 vs parent E. coli MG1655 ΔtolC): 2; fold increase of MIC ([12]; mutant CH4957 vs parent E. coli MG1655 ΔtolC): 4; fold increase of MIC ([12]; mutant CH5084 vs parent E. coli MG1655 ΔtolC): 4
3 | CN1CCN(c2cc(Nc3ccc4nc(-c5ccc(F)cc5)cc(N)c4c3)nc(N)n2)CC1 [Compound 8c, N^6-(2-Amino-6-(4-methylpiperazin-1-yl)pyrimidin-4-yl)-2-(4-fluorophenyl)quinoline-4,6-diamine] | 128 (≈ 288 µM) | >128 | 6.2 µM and 6.3 µM | > 128 | 15.6 (≈ 35.1 µM) | 16 (≈ 36 µM) | 128 (≈ 288 µM) | 16 (≈ 36 µM) | 16 (≈ 36 µM) | 64 (≈ 144 µM) | 40 | 40.5 | –
4 | CC(C)N1CCN(c2cc(Nc3ccc4nc(-c5ccc(F)cc5)cc(N)c4c3)nc(N)n2)CC1 [Compound 8d, N^6-(2-Amino-6-(4-isopropylpiperazin-1-yl)pyrimidin-4-yl)-2-(4-fluorophenyl)quinoline-4,6-diamine] | 128 (≈ 271 µM) | 128 (≈ 271 µM) | 3.6 µM | > 128 | 7.6 (≈ 16.1 µM) | 32 (≈ 67.7 µM) | 64 (≈ 135 µM) | 32 (≈ 67.7 µM) | 32 (≈ 67.7 µM) | 64 (≈ 135 µM) | 19 | 18.8 | –
5 | Nc1nc(Nc2ccc3nc(-c4ccc(F)cc4)cc(N)c3c2)cc(N2CCN(CCO)CC2)n1 [Compound 8e, 2-(4-(2-Amino-6-((4-amino-2-(4-fluorophenyl)quinolin-6-yl)amino)pyrimidin-4-yl)piperazin-1-yl)ethan-1-ol] | 128 (≈ 270 µM) | 128 (≈ 270 µM) | 6.6 µM and 6.53 µM | – | 16 (≈ 33.7 µM) | > 128 | – | 32 (≈ 67.4 µM) | 32 (≈ 67.4 µM) | 64 (≈ 135 µM) | > 100 | > 99 | MIC ([4]; ATCC19606, read-out: MIC Ab WT): > 128 µg/mL; MIC ([7]; ATCC25922, read-out: MIC Ec WT): > 128 µg/mL
6 | CN(C)C1CCN(c2cc(Nc3ccc4nc(-c5ccc(F)cc5)cc(N)c4c3)nc(N)n2)CC1 [Compound 8f, N^6-(2-Amino-6-(4-(dimethylamino)piperidin-1-yl)pyrimidin-4-yl)-2-(4-fluorophenyl)quinoline-4,6-diamine] | > 128 | >128 | 5.6 µM and 5.5 µM | > 128 | 10.9 (≈ 23.1 µM) | – | > 128 | 32 (≈ 67.7 µM) | 32 (≈ 67.7 µM) | 32 (≈ 67.7 µM) | > 100 | > 99.5 | –
7 | CC(C)(C)OC(=O)NC1CCN(c2cc(Nc3ccc4nc(-c5ccc(F)cc5)cc(N)c4c3)nc(N)n2)CC1 [Compound 8i, tert-Butyl (1-(2-Amino-6-((4-amino-2-(4-fluorophenyl)quinolin-6-yl)amino)pyrimidin-4-yl)piperidin-4-yl)carbamate] | 1 (≈ 1.84 µM) | 64 (≈ 118 µM) | 0.441 µM | 8 (≈ 14.7 µM) | 6.1 (≈ 11.2 µM) | 32 (≈ 58.8 µM) | 64 (≈ 118 µM) | 8 (≈ 14.7 µM) | 4 (≈ 7.34 µM) | 64 (≈ 118 µM) | 0.95 | 0.918 | IC50 at 3 days ([11]; resazurin): 1.3 µM; IC50 at 3 days ([11]; value in parentheses): 0.7 µg/mL
8 | Nc1nc(Nc2ccc3nc(-c4ccc(F)cc4)cc(N)c3c2)cc(N2CCC(CO)CC2)n1 [Compound 8n, (1-(2-Amino-6-((4-amino-2-(4-fluorophenyl)quinolin-6-yl)amino)pyrimidin-4-yl)piperidin-4-yl)methanol] | 32 (≈ 69.6 µM) | >64 | 4.1 µM and 4.13 µM | 64 (≈ 139 µM) | 17.7 (≈ 38.5 µM) | 64 (≈ 139 µM) | 64 (≈ 139 µM) | 16 (≈ 34.8 µM) | 32 (≈ 69.6 µM) | > 64 | – | – | IC50 at 3 days ([11]; resazurin): 3.7 µM; IC50 at 3 days ([11]; value in parentheses): 1.7 µg/mL
9 | Nc1nc(Nc2ccc3nc(-c4ccc(F)cc4)cc(N)c3c2)cc(N2CCCC(O)C2)n1 (stereo not drawn) [Compound 8o, 1-(2-Amino-6-((4-amino-2-(4-fluorophenyl)quinolin-6-yl)amino)pyrimidin-4-yl)piperidin-3-ol] | 64 (≈ 144 µM) | >64 | 3.4 µM and 3.37 µM | 32 (≈ 71.8 µM) | 10.2 (≈ 22.9 µM) | 32 (≈ 71.8 µM) | 32 (≈ 71.8 µM) | 16 (≈ 35.9 µM) | 16 (≈ 35.9 µM) | > 64 | – | – | –
10 | Nc1nc(Nc2ccc3nc(-c4ccc(F)cc4)cc(N)c3c2)cc(N2CCC(O)CC2)n1 [Compound 8p, 1-(2-Amino-6-((4-amino-2-(4-fluorophenyl)quinolin-6-yl)amino)pyrimidin-4-yl)piperidin-4-ol] | 64 (≈ 144 µM) | >64 | 5.1 µM and 5.16 µM | 64 (≈ 144 µM) | 16.5 (≈ 37 µM) | > 64 | 64 (≈ 144 µM) | 32 (≈ 71.8 µM) | 32 (≈ 71.8 µM) | > 64 | – | – | –
11 | CN1CCCC(COc2cc(Nc3ccc4nc(-c5ccc(F)cc5)cc(N)c4c3)nc(N)n2)C1 (stereo not drawn) [Compound 9c, N^6-(2-Amino-6-((1-methylpiperidin-3-yl)methoxy)pyrimidin-4-yl)-2-(4-fluorophenyl)quinoline-4,6-diamine] | 64 (≈ 135 µM) | >64 | 3.3 µM and 3.38 µM | > 64 | 37.5 (≈ 79.2 µM) | 16 (≈ 33.8 µM) | 64 (≈ 135 µM) | 16 (≈ 33.8 µM) | 32 (≈ 67.6 µM) | > 64 | 14 | 13.7 | –
12 | Nc1nc(Nc2ccc3nc(-c4ccc(F)cc4)cc(N)c3c2)cc(=O)[nH]1 [Compound 12, 2-Amino-6-((4-amino-2-(4-fluorophenyl)quinolin-6-yl)amino)pyrimidin-4(3H)-one] | 32 (≈ 88.3 µM) | 32 (≈ 88.3 µM) | 1.5 µM and 1.49 µM | 32 (≈ 88.3 µM) | 9.2 (≈ 25.4 µM) | 32 (≈ 88.3 µM) | 32 (≈ 88.3 µM) | 16 (≈ 44.2 µM) | 16 (≈ 44.2 µM) | > 64 | > 20 | > 19.9 | –
13 | Nc1cc(-c2ccc(F)cc2)nc2ccc(Nc3cc(Cl)ncn3)cc12 [Compound 14, N^6-(6-Chloropyrimidin-4-yl)-2-(4-fluorophenyl)quinoline-4,6-diamine] | 64 (≈ 175 µM) | >64 | 1.5 µM | > 64 | 4.8 (≈ 13.1 µM) | > 64 | > 64 | > 64 | 64 (≈ 175 µM) | > 64 | 5.1 | 5.19 | –
